This is an account of results in article PMC12386934, “Characteristics and Potential of KSL, KSL-W, and Dadapin-1 Antimicrobial Peptides for Preventing Infections of Orthopedic Prosthetic Devices: Identifying the Most Robust Candidate” (International Journal of Molecular Sciences, 2025).

The experiment deals with S. epidermidis cra4029 (SE 02). In kind it is cell-based. An excerpt: The experimental scheme reported in Figure 6 helped to simplify and optimize the in vitro testing of the antibacterial activity of the different AMPs. The initial transparent microtiter plate for the determination of the minimum inhibitory concentration (MIC) by optical density (OD) measurement was conveniently used as a starting point not only for the alterative determination of the MIC by luminescence but also for the minimum bactericidal concentration (MBC) and for the minimum biofilm inhibitory concentration (MBIC), as explained below. For every test peptide, at least three independent experiments were performed on each bacterial strain per test condition (100% MHB and 20% MHB). The sole exception to this rule was when MIC values were on rare occasions found to be greater than 500 µg/mL. Under these circumstances, two consecutive experiments were performed to confirm the results. In this case, the antibacterial activity was considered insignificant and the third experiment was generally considered unnecessary.
The antibacterial properties of the test AMPs were assayed under two distinct conditions of bacterial culture: (i) with bacteria cultured in undiluted Mueller–Hinton II Broth (MHB II) and (ii) with bacteria cultured in diluted MHB II as earlier described in Campoccia et al.. Briefly, a few colonies of each bacterial strain, taken from overnight cultures on Mueller–Hinton Agar plates (MHA, PO50007A, ThermoScientific, Thermo Fisher Scientific, Segrate, Italy), were resuspended in Mueller–Hinton II Broth (MHB II, 24107, Liofilchem, Roseto degli Abruzzi, Italy), either undiluted or at a 20% dilution in deionized water. The concentration of bacteria was adjusted to approximately 10^8 CFU/mL, as estimated by optical density reading at 625 nm, using a Hewlett Packard G1103A spectrophotometer (Waldbronn, Germany). The bacterial suspension was further diluted 1:100 in 100% or 20% MHB II. […]
For assessing the MBC, 10 μL of bacterial suspensions was taken from wells corresponding to MIC, 2× MIC, and 4× MIC and then plated on MHA plates. […] The MBC was determined as the lowest dilution causing absence of bacterial colonies growth on the plate.
In order to assess the extent of the interference of the culture medium composition with the antibacterial activity of the three peptides, a “Rate of Abatement” of the bactericidal properties (RoA) was calculated using the following formula (Equation (1)):RoA = MBCMHB/MBC20% MHB(1)
RoA indicates the fold increases in the MBC when tested in undiluted medium […], i.e., with maximal interference of broth polyanionic substances, with respect to diluted medium […]. […] A more versatile measure to express the loss of activity was calculated as follows. […]

In brackets after ≈: the same amount, converted by molar mass. Where a SMILES comes first, the peptide text is derived from it.

One may read the MBC as the lowest tested concentration that kills the bacteria rather than only halting them. A high value points to less potent killing. Molecule `CC(C)[C@H](NC(=O)[C@H](Cc1c[nH]c2ccccc12)NC(=O)[C@H](Cc1ccccc1)NC(=O)[C@@H](NC(=O)[C@@H](NC(=O)[C@H](CCCCN)NC(=O)[C@@H](N)CCCCN)C(C)C)C(C)C)C(=O)N[C@@H](CCCCN)C(=O)N[C@@H](Cc1ccccc1)C(=O)N[C@@H](CCCCN)C(=O)O` [KSL-W] (H-KKVVFWVKFK-OH) displayed an MBC of 1.95 µg/mL (≈ 1.49 µM).
